Tests used:
late watergrass = test: Test Example 1: herbicidal activity, application before weed generation under submerged conditions (Table 16, symbol A); type: in vivo, late watergrass (Echinochloa oryzicola); settings: 320 g/ha applied herbicide
In short: (§1)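 Emulsion formulation, water-diluted to set dose, was put onto the flooded surface (4 cm depth, alluvial soil) the same day weeds were sown and 2.5-leaf rice transplanted. After 3 weeks at 25-30 °C under glass, each species was rated 0 (≤5% kill) to 5 (≥90% kill).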

Japanese bulrush = test: Test Example 1: herbicidal activity, application before weed generation under submerged conditions (Table 16, symbol B); type: in vivo, Japanese bulrush (Schoenoplectus juncoides); settings: 320 g/ha applied herbicide
In short: as §1

barnyard grass [1] = test: Test Example 3: herbicidal effect by foliage application, Wagner pot (Table 18, symbol H); type: in vivo, barnyard grass (Echinochloa crus-galli); settings: 320 g/ha
In short: (§2)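 Plants were sown in alluvial soil held under 0.1–0.5 cm standing water and grown 14 days in a greenhouse at 25–30 °C. An emulsifiable formulation, water-diluted to the set dose, was then sprayed onto the foliage, and effects were scored three weeks later using previously defined criteria.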

Chinese sprangletop = test: Test Example 3: herbicidal effect by foliage application, Wagner pot (Table 18, symbol D); type: in vivo, chinese sprangletop (Leptochloa chinensis); settings: 320 g/ha
In short: as §2

rice flat sedge = test: Test Example 3: herbicidal effect by foliage application, Wagner pot (Table 18, symbol E); type: in vivo, rice flat sedge (Cyperus iria); settings: 320 g/ha
In short: as §2

southern crabgrass = test: Test Example 5: herbicidal effect by foliage application, plastic box (Table 20, symbol F); type: in vivo, southern crabgrass (Digitaria ciliaris); settings: foliage application, 320 g/ha, three weeks after application
In short: (§3)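 Foliar spray test: emulsion formulation diluted in water to a set application rate, sprayed onto 14-day-old plants raised in diluvial soil at 25° C to 30° C under glass. Both herbicidal effect and crop effect rated visually three weeks later.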

green foxtail = test: Test Example 5: herbicidal effect by foliage application, plastic box (Table 20, symbol G); type: in vivo, green foxtail (Setaria viridis); settings: foliage application, 320 g/ha, three weeks after application
In short: as §3

barnyard grass [2] = test: Test Example 5: herbicidal effect by foliage application, plastic box (Table 20, symbol H); type: in vivo, barnyard grass (Echinochloa crus-galli); settings: foliage application, 320 g/ha, three weeks after application
In short: as §3

wild oat = test: Test Example 5: herbicidal effect by foliage application, plastic box (Table 20, symbol I); type: in vivo, wild oat (Avena fatua); settings: foliage application, 320 g/ha, three weeks after application
In short: as §3

blackgrass = test: Test Example 5: herbicidal effect by foliage application, plastic box (Table 20, symbol J); type: in vivo, blackgrass (Alopecurus myosuroides); settings: foliage application, 320 g/ha, three weeks after application
In short: as §3

Italian ryegrass = test: Test Example 5: herbicidal effect by foliage application, plastic box (Table 20, symbol K); type: in vivo, Italian ryegrass (Lolium multiflorum); settings: foliage application, 320 g/ha, three weeks after application
In short: as §3

windgrass = test: Test Example 5: herbicidal effect by foliage application, plastic box (Table 20, symbol L); type: in vivo, windgrass (Apera spica-venti); settings: foliage application, 320 g/ha, three weeks after application
In short: as §3

velvetleaf = test: Test Example 5: herbicidal effect by foliage application, plastic box (Table 20, symbol M); type: in vivo, velvetleaf (Abutilon theophrasti); settings: foliage application, 320 g/ha, three weeks after application
In short: as §3

redroot pigweed = test: Test Example 5: herbicidal effect by foliage application, plastic box (Table 20, symbol N); type: in vivo, redroot pigweed (Amaranthus retroflexus); settings: foliage application, 320 g/ha, three weeks after application
In short: as §3

lambsquarters = test: Test Example 5: herbicidal effect by foliage application, plastic box (Table 20, symbol O); type: in vivo, lambsquarters (Chenopodium album); settings: foliage application, 320 g/ha, three weeks after application
In short: as §3

chickweed = test: Test Example 5: herbicidal effect by foliage application, plastic box (Table 20, symbol P); type: in vivo, common chickweed (Stellaria media); settings: foliage application, 320 g/ha, three weeks after application
In short: as §3

false cleavers = test: Test Example 5: herbicidal effect by foliage application, plastic box (Table 20, symbol Q); type: in vivo, false cleavers (Galium spurium); settings: foliage application, 320 g/ha, three weeks after application
In short: as §3

persian speedwell = test: Test Example 5: herbicidal effect by foliage application, plastic box (Table 20, symbol R); type: in vivo, Persian speedwell (Veronica persica); settings: foliage application, 320 g/ha, three weeks after application
In short: as §3

In the case of `CCCCOc1ccccc1-c1sc2ccccc2c1-c1c(O)c(C)nn(C)c1=O` [1-022], the “Herbicidal effect on A: late watergrass (grade 0-5)” value (late watergrass) is reported as 2 (Herbicidal rate of 20% or more and less than 40%), the “Herbicidal effect on B: Japanese bulrush (grade 0-5)” value (Japanese bulrush) is reported as 3 (Herbicidal rate of 40% or more and less than 70%) and the “herbicidal effect on H (barnyard grass), rating 0-5” value (barnyard grass [1]) is reported as 3 (Herbicidal rate of 40% or more and less than 70%). The “herbicidal effect on D (Chinese sprangletop), rating 0-5” value (Chinese sprangletop) was 0 (Herbicidal rate of 5% or less (almost no effect)), the “herbicidal effect on E (rice flat sedge), rating 0-5” value (rice flat sedge) was 4 (Herbicidal rate of 70% or more and less than 90%) and the “herbicidal effect grade, F: southern crabgrass” value (southern crabgrass) was 0 (Herbicidal rate of 5% or less (almost no effect)). The “herbicidal effect grade, G: green foxtail” value (green foxtail) was 0 (Herbicidal rate of 5% or less (almost no effect)), the “herbicidal effect grade, H: barnyard grass” value (barnyard grass [2]) was 3 (Herbicidal rate of 40% or more and less than 70%) and the “herbicidal effect grade, I: wild oat” value (wild oat) was 0 (Herbicidal rate of 5% or less (almost no effect)). The “herbicidal effect grade, J: blackgrass” value (blackgrass) was 0 (Herbicidal rate of 5% or less (almost no effect)), the “herbicidal effect grade, K: Italian ryegrass” value (Italian ryegrass) was 0 (Herbicidal rate of 5% or less (almost no effect)) and the “herbicidal effect grade, L: windgrass” value (windgrass) was 0 (Herbicidal rate of 5% or less (almost no effect)). The “herbicidal effect grade, M: velvetleaf” value (velvetleaf) was 0 (Herbicidal rate of 5% or less (almost no effect)), the “herbicidal effect grade, N: redroot pigweed” value (redroot pigweed) was 3 (Herbicidal rate of 40% or more and less than 70%) and the “herbicidal effect grade, O: lambsquarters” value (lambsquarters) was 0 (Herbicidal rate of 5% or less (almost no effect)). The “herbicidal effect grade, P: chickweed” value (chickweed) was 5 (Herbicidal rate of 90% or more (almost completely withered)), the “herbicidal effect grade, Q: false cleavers” value (false cleavers) was 4 (Herbicidal rate of 70% or more and less than 90%) and the “herbicidal effect grade, R: persian speedwell” value (persian speedwell) was 5 (Herbicidal rate of 90% or more (almost completely withered)).
